The test has as its system HIV. Briefly: Assay for inhibitory activity against HIV (p24 ELISA, infected MT-4 cells). Format: cell-based. Conditions: Human immunodeficiency virus 1, MT4; MT-4 cells infected with pNL4-3-derived HIV; p24 ELISA after 48 + 48 hrs; read-out: Conc. for Inhibition of HIV Activity (IC50). The procedure: The rhodanine derivatives of the present invention were assayed for inhibitory activity against HIV as follows.
A pNL4-3 vector carrying an HIV genome was transduced into 293FT cells. […] 293FT cells were seeded at a density of 3.0×10^5 cells/well into 6-well plates containing antibiotic-free DMEM supplemented with 10% FBS and grown for 48 hrs. Upon 90-95% confluency, the transduction was performed.
The DNA (pNL4-3) was added at a final concentration of 10 ng/mL to 250 μL of the reduced serum medium Opti-MEM I (GIBCO™, USA). Separately, 4 μL of Lipofectamine™ 2000 (Invitrogen, USA) was mixed with 250 μL of Opti-MEM I (GIBCO™), and incubated at room temperature for 5 min. The DNA (pNL4-3) was mixed at a ratio of 1:2 with the lipofectamine and reacted at room temperature for 20 min to form a DNA-lipofectamine complex. After removal of the medium from the cell culture, the mixture containing the DNA-lipofectamine complex was added to the cells and incubated for 4 hrs in a CO2 incubator. Then, the cell culture medium was replaced with a fresh antibiotic-free, 10% FBS-supplemented DMEM, followed by incubation for an additional 48 hrs. The HIV-infected cell culture was centrifuged at 1,500 rpm for 5 min to give a virus supernatant.
MT-4 cells were plated at a density of 1.0×10^6 cells/mL into 6-well plates containing RPMI supplemented with 10% FBS and incubated for 4 hrs before infection at a ratio of 1:1 with the virus supernatant. The cells were incubated for 48 hrs in a CO2 incubator, after which the culture medium was replaced with a fresh one. Again, incubation was continued for an additional 72 hrs to amplify the virus. After centrifugation at 1,500 rpm for 5 min, the virus supernatant thus obtained was examined for virus density using a Virononstika HIV-1 Antigen Microelisa system kit (bioMerieux, Inc. Netherland).
2. Assay for Inhibitory Activity Against HIV
The rhodanine derivatives prepared in Examples 1 to 38 were dissolved in DMSO to prepare respective 10 mM or 20 mM stocks, and stored at −20° C. The stocks were diluted to a starting concentration of 200 μM in DMSO before use in experiments.
MT-4 cells were suspended at a density of 4×10^5 cells in 200 μL of RPMI 1640 (Gibco, 10% FBS) per well of 24-well plates, and infected with 200 μL of a virus supernatant containing 2×10^5 pg/mL to give a total volume of 400 μL. After the stocks of the rhodanine derivatives were […] diluted to 200 μM in DMSO, 2 μL of each dilution was added to the cells to a final concentration of 1 μM or less. For a positive control, 10 μM AZT (azidothymidine, Sigma, USA) was used at a final concentration of 50 nM while DMSO was used at a final concentration of 0.5% as a negative control. The cells were cultured for 48 hrs in a CO2 incubator (37° C., 5% CO2), and the culture medium was replaced by RPMI 1640 containing the rhodanine derivative at a final concentration of 1 μM, followed by incubation for an additional 48 hrs. Virus soups were separated from cells by centrifugation at 1,500 rpm for 5 min and then at 13, 000 rpm for 5 min. ELISA for p24 concentrations was carried out using a Virononstika HIV-1 Antigen Microelisa system kit (bioMerieux, Inc. Netherland) to determine the inhibitory activity of each of the rhodanine derivatives against HIV.
In general terms: An ELISA detects its analyte on a solid surface through an enzyme-linked reagent.
As usually defined, the IC50 is the concentration that gives 50% inhibition. For `Cc1ccc(N2C(=O)/C(=C/c3ccc(-c4cccc([N+](=O)[O-])c4)o3)SC2=S)c(C)c1` [Example 1, 3-(2,4-Dimethyl-phenyl)-5-[5-(3-nitro-phenyl)-furan-2-ylmethylene]-2-thioxo-thiazolidin-4-one], the IC50 amounted to 0.8 µM.

With `CC(=O)CCN1C(=O)/C(=C/c2ccc(-c3ccc(Br)cc3)o2)SC1=S` [Example 5, 5-[5-(4-bromo-phenyl)-furan-2-ylmethylene]-3-(3-oxo-butyl)-2-thioxo-thiazolidin-4-one], the IC50 came to 1 µM.

Take `O=C1/C(=C/c2ccc(-c3ccc(Cl)cc3Cl)o2)SC(=S)N1c1cccc(F)c1` [Example 8, 5-[5-(2,4-dichloro-phenyl)-furan-2-ylmethylene]-3-(3-fluoro-phenyl)-2-thioxo-thiazolidin-4-one]: the IC50 came to 0.5 µM.

Regarding `O=C1C(=Cc2ccc(-c3ccc([N+](=O)[O-])cc3)o2)SC(=S)N1c1cccc(F)c1` [Example 13, 3-(3-fluoro-phenyl)-5-[5-(4-nitro-phenyl)-furan-2-ylmethylene]-2-thioxo-thiazolidin-4-one], the IC50 was found to be 0.5 µM.

For `O=C1C(=Cc2ccc(-c3cc([N+](=O)[O-])ccc3Br)o2)SC(=S)N1c1ccc(I)cc1` [Example 16, 5-[5-(2-bromo-5-nitro-phenyl)-furan-2-ylmethylene]-3-(4-iodo-phenyl)-2-thioxo-thiazolidin-4-one], the IC50 was 0.5 µM.

Consider `COc1ccc(-c2ccc(/C=C3\SC(=S)N(CC(=O)O)C3=O)o2)c([N+](=O)[O-])c1` [Example 21, {5-[5-(4-methoxy-2-nitro-phenyl)-furan-2-ylmethylene]-4-oxo-2-thioxo-thiazolidin-3-yl}-acetic acid], for which the IC50 turned out to be 1 µM.

In the case of `CC(C)OC(=O)c1ccc(-c2ccc(/C=C3/SC(=S)NC3=O)o2)cc1` [Example 23, 4-[5-(4-oxo-2-thioxo-thiazolidin-5-ylidenemethyl)-furan-2-yl]-benzoic acid isopropylester], the half-inhibitory concentration (IC50) turned out to be 0.4 µM.

For `CCCOC(=O)c1cc(-c2ccc(/C=C3/SC(=S)NC3=O)o2)ccc1Cl` [Example 29, 2-chloro-5-[5-(4-oxo-2-thioxo-thiazolidin-5-ylidenemethyl)-furan-2-yl]-benzoic acid propyl ester], the IC50 was 0.5 µM.

Turning to `O=C(O)CN1C(=O)/C(=C/c2ccc(-c3cccc([N+](=O)[O-])c3)o2)SC1=S` [Example 38, {5-[5-(3-nitro-phenyl)-furan-2-ylmethylene]-4-oxo-2-thioxo-thiazolidin-3-yl}-acetic acid], the IC50 is 0.75 µM.

Values taken from patent publication US8759536B2, “Rhodanine derivatives, method for preparing same, and pharmaceutical composition for the prevention or treatment of aids containing the rhodanine derivatives as active ingredients” (Avixgen Inc., priority 2010, dated 2014).
